Experimental data reported in publication PMC3690532 (Structure (London, England : 1993), 2013).

Target: T1, S. enterica MTAN (SeMTAN) (Salmonella choleraesuis, UniProt Q57T48)
T1 sequence (Q57T48 1-232): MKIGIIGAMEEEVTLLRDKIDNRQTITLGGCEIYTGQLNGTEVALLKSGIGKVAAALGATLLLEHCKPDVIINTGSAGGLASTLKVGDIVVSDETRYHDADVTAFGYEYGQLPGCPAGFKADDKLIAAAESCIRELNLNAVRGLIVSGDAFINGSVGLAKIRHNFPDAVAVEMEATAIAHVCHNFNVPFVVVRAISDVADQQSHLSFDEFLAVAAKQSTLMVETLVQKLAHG
Test: slow-onset inhibition constant
Assay type: biochemical
Conditions: for ΔG (Gibbs free energy): generated from Ki* using ΔG = RT ln Ki*; for ΔΔG: methylthio-DADMe-ImmA as reference

| Compound | ΔG (Gibbs free energy) | ΔΔG | ΔG of binding higher when compared to MT-, DiEGT- and BuT-DADMe-ImmA (difference versus the three inhibitors) |
| --- | --- | --- | --- |
| Nc1ncnc2c(CN3CC(O)C(CSCCOCCO)C3)c[nH]c12 (stereo not drawn) [2-(2-hydroxyethoxy)ethylthio-DADMe-ImmA] | -15.4 ± 0.1 kcal/mol | 0 kcal/mol | – |
| CCCCSC[C@H]1CN(Cc2c[nH]c3c(N)ncnc23)C[C@@H]1O [Butylthio-DADMe-ImmA, reference compound] | -16.1 ± 0.2 kcal/mol | -0.7 kcal/mol | – |
| CSC[C@H]1CN(Cc2c[nH]c3c(N)ncnc23)C[C@@H]1O [Methylthio-DADMe-ImmA, reference compound] | -15.4 ± 0.1 kcal/mol | 0 kcal/mol | – |
| Nc1ncnc2c(CN3CC(O)C(CSCCO)C3)c[nH]c12 (stereo not drawn) [2-Hydroxyethylthio-DADMe-ImmA] | -14.9 ± 0.1 kcal/mol | 0.5 kcal/mol | – |
| Nc1ncnc2c(CN3CC(O)C(CSCCCO)C3)c[nH]c12 (stereo not drawn) [3-Hydroxypropylthio-DADMe-ImmA] | -15.2 ± 0.2 kcal/mol | 0.2 kcal/mol | – |
| Nc1ncnc2c(CN3C[C@H](CSCC[C@H](N)C(=O)O)[C@@H](O)C3)c[nH]c12 [Homocysteine-DADMe-ImmA, reference compound] | -13.9 ± 0.1 kcal/mol | 1.5 kcal/mol | 1.5 to 2.2 kcal/mol |
| Nc1ncnc2c(CN3CC(O)C(CSCCCCO)C3)c[nH]c12 (stereo not drawn) [4-Hydroxybutylthio-DADMe-ImmA] | -14.8 ± 0.1 kcal/mol | 0.6 kcal/mol | – |
